# “Also recorded” adds a separate entry of the source. Read-outs that look alike come from different tables or passages of the source.
# Tests used:
# [1] = test system: heme biosynthetic pathway; assay: Accumulation of heme precursor molecules; format: cell-based, S. aureus; conditions: data not shown
# From the text: Because ALA is the first committed precursor molecule in the heme biosynthetic pathway, if ALA is contacted with bacteria, the bacteria will generated enhanced amounts of all of the heme precursor molecules downstream of ALA.
# HssRS = assay: microbe, parasite or virus in culture; format: cell-based, S. aureus; conditions: for EC50: Staphylococcus aureus, 6 h; for Efficacy: percent activation of HssRS compared to 1 at 50 μM, error one standard deviation; for HssRS activation in single point screen: 50 μM, fraction of activation relative to 1, cut-off 0.05, in words
# Protocol: Previously reported strains were used.^11 Cultures grown overnight in 5 ml TSB with 10 μg mL^−1 chloramphenicol for 15-18 h were subcultured 1:100 into 0.5 mL TSB with 10 μg mL^−1 chloramphenicol containing compound and incubated at 37° C., 180 rpm for 6 h. Cells were washed and lysed as previously described. 200 μL of a 200 μM catechol solution in 100 mM potassium phosphate (pH 8.0) was added to 20 μL of lysate and the oxidation of catechol was followed by monitoring absorbance at 375 nm for 10 min. Samples were normalized to protein concentration as determined by BCA assay (Pierce).
# The above XylE procedure was followed using different concentrations of compound. The data were then entered into Graphpad Prism 6 and fit to a curve to determine EC50 values.
# HssRS activation. The library was screened for activation of the heme stress response as an indicator for activation of heme biosynthesis in S. aureus. We began by screening at the single point concentration of 50 μM using a previously described reporter assay (FIG. 4).^11 In this assay, Newman harboring a plasmid with the hrt promoter fused to xylE, a gene encoding a catechol oxidase, is treated with compound for six hours, the bacteria lysed, and the oxidation of catechol by XylE quantified by spectrophotometry. An increase in absorbance due to the oxidation of catechol indicates elevated levels of xylE transcription and hrt promoter activity. Results are expressed as the fraction of activation of HssRS by the compound compared to 1. […] With reference to FIG. 8, activation of HssRS by 3a and 3b at 50 μM. Activity is presented as the fraction of activation by the indicated derivative relative to 1 at 50 μM.
# [2] = test system: wild type S. aureus strain Newman; assay: Growth inhibition IC50, Newman aerobic; format: cell-based; conditions: 95% confidence interval, >60 μM considered nontoxic
# Protocol: (§1) Cultures of wild type S. aureus strain Newman and ΔmenB^14 were grown in aeration tubes aerobically at 37° C. with shaking for 15-18 h. Anaerobic cultures were prepared by growing bacteria at 37° C. without shaking in an anaerobic chamber for 15-18 h. Bacteria from each condition were subcultured 1:100 into TSB containing various concentrations of compound in a 96 well plate. Aerobic wild type and ΔmenB plates are incubated aerobically at 37° C. with shaking while anaerobic plates were grown in an anaerobic chamber (Coy) at 37° C. without shaking. The absorbance at 600 nm (OD600) was determined after 9 h of growth and the fraction of growth at each compound concentration is determined by dividing the OD600 by the vehicle control (DMSO) value. IC50s were calculated using Graphpad Prism 6 and errors are reported as 95% confidence intervals.
# (§2) Wild type S. aureus strain Newman was grown in an anaerobic chamber in appropriate media to ensure exclusion of terminal electron acceptors sufficient to force the bacteria to ferment. […] The arbitrary cut off point for toxicity of 60 μM was chosen as many of the compounds were not entirely soluble above this concentration.
# [3] = test system: wild type S. aureus strain Newman; assay: Growth inhibition IC50, Newman anaerobic (fermenting); format: cell-based; conditions: for IC50: Staphylococcus aureus, NEWMAN, 9 h of growth, anaerobic chamber, 95% confidence interval, >60 μM considered nontoxic; for toxicity to fermenting / anaerobic S. aureus (in words): anaerobic Newman and ΔmenB, from IC50 data
# Protocol: as §1, §2
# ΔmenB = assay: Growth inhibition IC50, ΔmenB; format: cell-based, S. aureus; conditions: Staphylococcus aureus, 9 h, read-out: IC50 ΔmenB
# Protocol: as §1, with “intervals. […]” for “intervals.”
# S. aureus [4] = conditions: earlier method, low cell density; cited from earlier work
# S. aureus [5] = assay: Heme adaptation assay; format: cell-based; conditions: subculture into 20 μM heme
# Protocol: Overnight cultures of S. aureus were subcultured into 500 μL TSB containing compound in 1.5 mL tubes and incubated at 37° C. with shaking for 15 h. Bacteria from the compound treated cultures were then subcultured 1:100 into 100 μL TSB containing heme and incubated at 37° C. with shaking for 8 h. Growth was monitored by reading the OD600 on a Biotek microplate reader at the defined time intervals.
# Finally, the top activators were assayed for their ability to preadapt S. aureus to heme as an indication that they can activate HssRS outside the context of a reporter assay. Pretreatment of cultures with a compound that induces HrtAB expression through activation of HssRS at subtoxic concentrations allows the bacteria to survive and grow when subcultured into a toxic concentration of heme. Pretreatment with 4 μM heme, 40 μM 1, and vehicle with 40 μM of each of the top activators were compared (excluding 2d because of toxicity). All derivatives were able to preadapt S. aureus to a toxic concentration of heme (20 μM) as well as 4 μM heme and 40 μM 1 (FIG. 5). The discrepancy between XylE assay and heme adaptation activity is likely due to the length of treatment with compound (6 h vs. 15 h).
# Solubility limit = format: physicochemical
# S. aureus infection = conditions: previously reported; cited from earlier work
# [6] = Staphylococcus aureus, NEWMAN, 9 h, read-out: IC50 Newman aerobic, 9 h of growth, aerobic
Structure (SMILES),EC50 (HssRS) [µM],EC50 (HssRS; read-out: pEC50 (converted)) [µM],Efficacy (HssRS) [%],"IC50 [2, 6] [µM]",IC50 [3] [µM],toxicity to fermenting / anaerobic S. aureus (in words) [3],IC50 (ΔmenB) [µM],preadaptation to heme toxicity (S. aureus [5]; pretreatment 40 μM compound),further results
"NCC(=O)CCC(=O)O [ALA, reference compound]",,,,,,,,,accumulation of PBG [1]: results in accumulation of PBG
Oc1c(-c2cc(-c3ccco3)[nH]n2)ccc2ccccc12 [Compound 1],11.6,12.6,100,> 60,13.5,intermediate between the two,1.66,,anaerobic toxicity (previously reported) (S. aureus [4]): toxic to S. aureus growing anaerobically
"O=C(Nc1ccccc1-c1cc(-c2ccco2)[nH]n1)c1cc(Cl)cc(Cl)c1 [Compound 1i, 3,5-dichloro-N-(2-(5-(furan-2-yl)-1H-pyrazol-3-yl)phenyl)benzamide]",,,,> 60,19.6,,8.69,indistinguishable from vehicle,
"Oc1ccccc1-c1cc(-c2cccs2)[nH]n1 [Compound 2a, 2-(5-(thiophen-2-yl)-1H-pyrazol-3-yl)phenol]",,,17.0 ± 2.9,> 60,> 60,,> 60,,solubility (Solubility limit): ~80 µM
"Oc1ccccc1-c1cc(-c2ccccc2O)[nH]n1 [Compound 2d, 2,2′-(1H-pyrazole-3,5-diyl)diphenol]",5.81,5.75,,42.2,15.8,anaerobic toxicity similar to 1; also recorded: exhibits both activities,9.33,,"IC50 ([2]; read-out: IC50 Newman aerobic, 9 h of growth, aerobic): 42.5 µM; preadaptation to heme toxicity (S. aureus [5]; pretreatment 20 μM compound): excellent preadaptation to heme toxicity"
Oc1ccccc1-c1cc(-c2ccccc2F)[nH]n1 [Compound 2e],10.7,10.7,35.7 ± 10.1,> 60,> 60,eliminates this toxicity; also recorded: not bacteriostatic under the conditions tested here; also recorded: removes toxicity,> 60,,HssRS activation in single point screen (HssRS): comparable to 1a in activity; drop in efficacy (HssRS; compared to 1): ~70%; anaerobic toxicity (previously reported) (S. aureus [4]): anaerobic toxicity; efficacy in mouse model of S. aureus infection (S. aureus infection): efficacy in a mouse model of S. aureus infection
Oc1ccccc1-c1cc(-c2ccncc2)[nH]n1 [Compound 2i],,,,> 60,> 60,,> 60,indistinguishable from vehicle,
"CCCCCc1cc(-c2ccccc2O)n[nH]1 [Compound 2o, 2-(5-pentyl-1H-pyrazol-3-yl)phenol]",,,,48.6,11.6,comparably toxic to 1,13.2,indistinguishable from vehicle,
"COc1ccccc1-c1cc(-c2ccccc2)[nH]n1 [Compound 3a, 3-(2-methoxyphenyl)-5-phenyl-1H-pyrazole]",,,,> 60,20.8,maintaining toxicity,24.9,indistinguishable from vehicle,"HssRS activation (in words) (HssRS; summary statements, concentration not fixed): removes HssRS activity"
"Cn1nc(-c2ccc3ccccc3c2O)cc1-c1ccco1 [Compound 4b, 2-(5-(furan-2-yl)-1-methyl-1H-pyrazol-3-yl)naphthalen-1-ol]",,,,> 60,4.27,,3.3,,HssRS activation in single point screen (HssRS): complete loss of activity

# — US9867879B2 (Vanderbilt University, priority 2015, dated 2018)
